This note sets out measurements from patent publication US10266484B2, “Biodegradable lipids for the delivery of active agents” (ALNYLAM PHARMACEUTICALS, INC., priority 2010, dated 2019).

Data set [1] in a line: Lipid concentration and pharmacokinetics in the liver of mice after intravenous administration. Particulars: mouse, male C57BL mice, lipid dose 0.3 mg/kg. It is filed as in vivo. The method, then: (§1) A study was conducted to determine the lipid profile and tissue clearance in mice for cationic lipids according to the present invention.
(§2) Male mice (C57BL, 20-30 g) were separated into four groups and administered (intravenously) either Compound 1, 2 or 3 of the present invention, or a Reference Lipid, as shown below in Table 20.
(§3) The mice were not fasted. Blood, liver and spleen samples were collected (two samples per time point per group) at 0.17, 8, 24, 72, 168, 336 and 672 hours post dose.

Data set [2] can be described thus: Concentration of mono-acid and di-acid metabolites in the liver of mice. Particulars: 0.3 mg/kg intravenous. It is filed as in vivo, mice (C57BL). As to the method:
as §2, §3
The concentration of these metabolites was measured in the liver. All measurements after 24 hours (including those taken at 72, 168, 336, and 672 hours post-administration) were below the level of quantification (BLQ).

The nature of data set [3]: Lipid concentration and pharmacokinetics in the spleen of mice after intravenous administration. The format is in vivo. Particulars: mouse, male C57BL mice, lipid dose 0.3 mg/kg; for MRT last: read-out: MRT0-t (mean residence time). The method, then: as §1, §2, §3
Data set [4] can be described thus: Concentration of metabolites of compounds 1-3 in the spleen of mice. The format is in vivo, mice (C57BL). The method, then: as §2, §3
The nature of data set [5]: Lipid concentration and pharmacokinetics in the plasma of mice after intravenous administration. It is filed as in vivo. Particulars: mouse, male C57BL mice, lipid dose 0.3 mg/kg. The method, then:
as §1, §2, §3

Data set [6] in a line: Concentration of metabolites of compounds 1-3 in the plasma of mice. The format is in vivo, mice (C57BL). As to the method:
as §2, §3
All measurements after 24 hours (including those taken at 72, 168, 336, and 672 hours post-administration) were below the level of quantification (BLQ).

Data set [7] in a line: Study to determine lipid profiles and tissue clearance in mice (overall conclusion). It is filed as in vivo, mice (C57BL). The note with it: liver, spleen and plasma (FIGS. 1, 3, 4; Tables 22, 24, 26). The method, then: as §1, §2, §3
The mark [8] stands for this setting: read-out: MRT0-t (mean residence time).

Turning to `CCCCCC/C=C\COC(=O)CCCCCCCC(CCCCCCCC(=O)OC/C=C\CCCCCC)OC(=O)CCCN(C)C` [Compound 1, di((Z)-non-2-en-1-yl) 9-((4-(dimethylamino)butanoyl)oxy)heptadecanedioate], the AUC is 4.59 µg·h/mL in data set [1], 42 µg·h/mL in data set [3] and 155 µg·h/mL in data set [5]. Also, the highest concentration (Cmax) came out at 1.14 µg/mL in data set [1], 7.46 µg/mL in data set [3] and 38.8 µg/mL in data set [5]. In data set [2] (24 hr post dose), the Di-acid metabolite concentration result was “BLQ”. Besides, the Mono-acid metabolite concentration entry in data set [2] (24 hr post dose) is “BLQ”. In addition, the MRT last in data set [3] stood at 2.8 h. Also, the “Concentration of di-acid metabolite in the spleen” value in data set [4] (8 hr post dose), in data set [4] (24 hr post dose), in data set [4] (72 hr post dose), in data set [4] (168 hr post dose), in data set [4] (336 hr post dose) and in data set [4] (672 hr post dose) was “BLQ” each time. Besides, the “Concentration of mono-acid metabolite in the spleen” value in data set [4] (24 hr post dose), in data set [4] (72 hr post dose), in data set [4] (168 hr post dose), in data set [4] (336 hr post dose) and in data set [4] (672 hr post dose) was “BLQ” throughout. Moreover, the “Concentration of di-acid metabolite in the plasma” value in data set [6] (8 hr post dose) and in data set [6] (24 hr post dose) was “BLQ” each time. In addition, the “Concentration of mono-acid metabolite in the plasma” value in data set [6] (8 hr post dose) and in data set [6] (24 hr post dose) was “BLQ” each time. Also, the “Tissue clearance and activity compared to the Reference Lipid” value in data set [7] is “dramatically improved tissue clearance and activity”.
As for `CCOC(=O)CCCC/C=C\CCCCCCCCC(CCCCCCCC/C=C\CCCCC(=O)OCC)OC(=O)CCCN(C)C` [Compound 2], the results for the AUC in data set [1], in data set [3] and in data set [5] were 0.436 µg·h/mL, 238 µg·h/mL and 116 µg·h/mL, respectively. Further, the Cmax in data set [1] was 0.118 µg/mL; in data set [3], 13.6 µg/mL; in data set [5], 28.8 µg/mL. In addition, in data set [2] (24 hr post dose), the Di-acid metabolite concentration result is “BLQ”. The Mono-acid metabolite concentration result in data set [2] (24 hr post dose) was “BLQ”. In data set [3], the MRT last worked out at 11.1 h. Also, the “Concentration of di-acid metabolite in the spleen” value in data set [4] (24 hr post dose), in data set [4] (72 hr post dose), in data set [4] (168 hr post dose), in data set [4] (336 hr post dose) and in data set [4] (672 hr post dose) was “BLQ” throughout. Further, the “Concentration of mono-acid metabolite in the spleen” value in data set [4] (72 hr post dose), in data set [4] (168 hr post dose), in data set [4] (336 hr post dose) and in data set [4] (672 hr post dose) was “BLQ” throughout. The “Concentration of di-acid metabolite in the plasma” value in data set [6] (24 hr post dose) is “BLQ”. For the same molecule, the “Concentration of mono-acid metabolite in the plasma” value in data set [6] (24 hr post dose) is on record as “BLQ”. In data set [7], the “Tissue clearance and activity compared to the Reference Lipid” value was “dramatically improved tissue clearance and activity”.
For `COC(=O)CCCCCCC/C=C\CCCCCCCCC(CCCCCCCC/C=C\CCCCCCCC(=O)OC)OC(=O)CCCN(C)C` [Compound 3], the highest concentration (Cmax) is 0.208 µg/mL in data set [1], 4.37 µg/mL in data set [3] and 30.6 µg/mL in data set [5]. For the same molecule, the Di-acid metabolite concentration entry in data set [2] (8 hr post dose) and in data set [2] (24 hr post dose) was “BLQ” throughout. The Mono-acid metabolite concentration entry in data set [2] (8 hr post dose) and in data set [2] (24 hr post dose) was “BLQ” each time. Moreover, the AUC in data set [3] was determined as 18.7 µg·h/mL; in data set [5] it was 122 µg·h/mL. The MRT last in data set [3] came to 0.7 h. Also, the “Concentration of mono-acid metabolite in the spleen” value in data set [4] (24 hr post dose), in data set [4] (72 hr post dose), in data set [4] (168 hr post dose), in data set [4] (336 hr post dose) and in data set [4] (672 hr post dose) was “BLQ” throughout. In data set [4] (672 hr post dose), the “Concentration of di-acid metabolite in the spleen” value is “BLQ”. The “Concentration of mono-acid metabolite in the plasma” value in data set [6] (8 hr post dose) and in data set [6] (24 hr post dose) was “BLQ” throughout. The “Tissue clearance and activity compared to the Reference Lipid” value in data set [7] was “dramatically improved tissue clearance and activity”.
On to `CCCCC/C=C\C/C=C\CCCCCCCCOCC(CN(C)C)OCCCCCCCC/C=C\C/C=C\CCCCC` (centres unmarked) [Reference Lipid, reference compound], for which the exposure (AUC) came to 6950 µg·h/mL in data set [1], 3430 µg·h/mL in data set [3] and 63.8 µg·h/mL in data set [5]. In addition, the Cmax amounted to 22.4 µg/mL in data set [1], 9.15 µg/mL in data set [3] and 2.11 µg/mL in data set [5]. Also, the MRT last in data set [1] (setting [8]) was found to be 221 h; in data set [3] it was 230 h; in data set [5] (setting [8]), 201 h.

By AUC is commonly meant concentration integrated over time. As a reminder, the Cmax is the highest concentration seen after dosing.
